Reference: patent US20250195660A1, “INACTIVATING BACTERIA WITH ELECTRIC PULSES AND ANTIBIOTICS” (Purdue Research Foundation, priority 2018, published 2025)
Entries after “also recorded” stand apart in the source; their conditions may differ.

Experiments:
[1] = test system: carbapenem-resistant Escherichia coli (ATCC BA-2452, NDM-1 positive); assay: Inactivation of carbapenem-resistant E. coli by 300 ns electric pulses and/or antibiotics (CFU plating); type: cell-based; conditions: drug alone, 2 μg/mL or 20 μg/mL, no EPs
Description: (§1) Except for rifampicin, the five other antibiotics in these examples primarily target gram-positive bacteria and are largely ineffective or not used against gram-negative bacteria in a clinical setting.
(§2) A Blumlein pulsed generator consisting of two lines comprised of twelve 2000 pF capacitors connected by inductors produced 300 ns EPs with rise-times of 30 ns and fall-times of 35 ns at a repetition frequency of 1 Hz (12). The EPs were applied to a standard 2 mm gap electroporation cuvette (Dot Scientific R) filled with a solution containing the microorganisms. Used was a Luria broth of 0.5% salinity (5 grams of NaCl/Liter) for the solution to electrically match the resistance of the sample with the impedance of the pulse generator (11Ω) to prevent signal reflection. The voltage measurements were taken using a LeCroy PPE 20 kV high voltage probe with a 1000:1 attenuation recorded by a TeleDyne LeCroy® Waverunner 6 Zi Oscilloscope with a bandwidth of 4 GHZ.
(§3) The gram-negative strains included a carbapenem-resistant Escherichia coli (ATCC® BA-2452TM, New Delhi metallo-beta-lactamase NDM-1 positive.), Klebsiella pneumoniae (ATCC® BAA-2146TM NDM-I positive), and a gentamicin, streptomycin and sulfonamide resistant Pseudomonas aeruginosa (BEI Resources NR-31040). Assessed was the gram-positive strain of methicillin resistant Staphylococcus aureus (USA300-0114 strain), which is also resistant to erythromycin and tetracycline. Samples were cultured in Luria broth (LB Broth Lennox, powder microbial growth medium, SIGMA-ALDRICH®) by taking 25 mL of broth in a 50 mL sterile conical tube and incubating in a shaker for 16 h at 37° C. Samples were diluted 50% by adding 25 mL media to the incubated sample as we plated controls for each experiment and condition.
(§4) Samples were treated in 2 mm gap cuvettes containing 365 μL of sample between the electrodes, with bio-grade mineral oil added on top of the electrode plates to prevent arcing.
(§5) To establish a common baseline for comparing different NSEP parameters, we fixed the energy density U delivered to the cuvettes according to Formula (1) (above). For 300 ns EPs, 500 EPs at 20 kV/cm and 222 EPs at 30 kV/cm delivered the same energy to the sample.
(§6) Tissue culture Petri dishes from VWR R (15 cm diameter, 10 mm height) were utilized for plating. Each plate was covered with 15 mL of Luria broth (Agar, microbiology tested powder, SIGMA-ALDRICH®), which was prepared by adding 20 g of LB Lennox (SIGMA-ALDRICH) and 15 g/L of agar to water prior to being autoclaved. The salinity of the agar was the same as the LB (0.5% NaCl) to minimize additional environmental stressors on the bacteria.
(§7) Removed was 20 μL from each cuvette and added to 180 μL of PBS in a 96-well dish in triplicate. Each well was then diluted by a ratio of 10:1 five additional times by taking 20 μL of the diluted sample into subsequent wells using multi-channel pipettes (using fresh tips for each dilution). Plated were the six dilutions of each sample two times each by adding 4 μL from each well onto the Petri dish using a multi-channel pipette, which allowed the plating of all three replicates on the same plate to achieve n=6. These plates were then cultured overnight in an incubator at 37° C., and counted the next day.

[2] = test system: gentamicin, streptomycin and sulfonamide resistant Pseudomonas aeruginosa (BEI Resources NR-31040); assay: Inactivation of P. aeruginosa by 300 ns electric pulses and/or antibiotics (CFU plating); type: cell-based; conditions: for additional inactivation of P. aeruginosa: 20 kV/cm NSEPs + 2 μg/mL or 20 μg/mL
Description: as §1, §2, §3, §4, §5, §6, §7

[3] = test system: Klebsiella pneumoniae (ATCC BAA-2146 NDM-I positive); assay: Inactivation of K. pneumoniae by 300 ns electric pulses and/or antibiotics (CFU plating); type: cell-based
Description: as §1, §2, §3, §4, §5, §6, §7

[4] = test system: methicillin resistant Staphylococcus aureus (USA300-0114 strain); assay: Inactivation of MRSA by 300 ns electric pulses and/or antibiotics (CFU plating); type: cell-based
Description: as §1, §2
as §3, with “condition. […]” for “condition.”
Removed was 20 μL from each cuvette and added to 180 μL of PBS in a 96-well dish in triplicate. […] These plates were then cultured overnight in an incubator at 37° C., and counted the next day.

[5] = test system: Stapphylococcus aureus (gram positive bacterium number 25923); assay: Inactivation of S. aureus by 300 ns electric pulses combined with antibiotic (CFU plating); type: cell-based, Staphylococcus aureus
Description: (§8) Equipment. Used was a capacitor based Blumlein pulse generator with a spark gap switch to produce trapezoidal EPs of 300 ns duration at the peak with rise and fall times close to 50 ns. Multiple pulses were delivered at a frequency of 1 Hz.
(§9) The samples were treated in a standard electroporation cuvette (Dot Scientific) whose resistance must match the pulse generator's impedance to prevent pulse reflection. Utilizing Luria broth, containing 0.5% NaCl, in a cuvette with gap distances of 1 mm and 2 mm yielded the best electrical match (no reflections in the measured signal). Used were 2 mm cuvettes to ensure consistency between tests, and the applied voltage was measured across the cuvette using a LeCroy PPE 20 kV high voltage probe with a 1000:1 attenuation feeding into a TeleDyne LeCroy Waverunner 6 Zi Oscilloscope capable of measuring signals up to 4 GHz. Assuming a purely parallel plate geometry with minimal fringing gives an electric field E=V/d, where V is the peak voltage of the applied pulse and d is the gap distance.
(§10) Sample Preparation. These experiments assessed Stapphylococcus aureus (gram positive bacterium number 25923) from ATCC and Esherichia coli (gram negative bacterium number 25922) inoculated in luria broth (LB Broth Lennox, powder microbial growth medium. SIGMA-ALDRICH) by taking 8 mL of broth in a 50 mL sterile conical tube and incubating in a shaker for 20 h at 37° C. The sample was then diluted with fresh Luria broth until attaining an optical density of 0.25 for 100 μL on a photospectrometer (Molecular Devices) for a wavelength of 562 nm as measured in a 96-well plate. The optical density, which varies with growth or tube volume, was determined experimentally and set between 1×10^8 and 1.5×10^8 colony forming units (CFUs)/mL for the samples to be pulsed. These samples were then plated at dilutions between 10-6 and 100 (no dilution) depending on the effectiveness of the pulse treatments.
(§11) Electric Pulse Treatment Protocol. […] Although no consensus exists on a universal scaling law for applied EP “dose,” we fixed the energy density
(§12) [formula] • where N is the number of pulses and τ is the pulse duration. Fixing U for E=40, 30, and 20 kV/cm gave N=250, 445, and 1000 pulses, respectively. Cultures were plated as described below.
Cuvettes were filled with 365 μL of sample (sufficient to just cover the electrodes) and then 250 μL of molecular biology grade mineral oil was placed on top. Keeping the samples on ice upon achieving the required dilution further reduced experimental variability by slowing biological processes, such as fission This facilitated the assessment of the inactivation efficiency of EPs, drugs, and combined treatments.
Tests used the clinically relevant, bactericidal drug tobramycin, which targets the 30S and 50S ribosome complex and has a clinical dose from 4 to 5 μg/mL and rifampicin, which inhibits bacterial […]. Added were 0.2, 2, and 20 μg/mL of each drug to the initial bacterial dilutions prior to pulsing. Samples were immediately placed on ice to minimize cell division and reduce variability. These aliquots were also used to plate individual unpulsed controls for each drug concentration.
(§13) Plating. Plating was done on standard disposable tissue culture Petri dishes from VWR (15 cm diameter, 10 mm height) and covered with 10 mL of agar in luria broth (Agar, microbiology tested powder, SIGMA-ALDRICH), which was prepared by adding 20 g of LB lennox (SIGMA-ALDRICH) and 15 g/L of agar to water and then autoclaved.
(§14) Plated were samples at dilutions of 10^−6 and 10^−3 for low and high electric field treatments, respectively, and at 10^−6 and 10^−5 for controls All samples containing 100 μL of pulsed or diluted cultures were plated on LB agar plates and counted after overnight incubation at 37° C. […]

[6] = test system: Esherichia coli (gram negative bacterium number 25922); assay: Inactivation of E. coli by 300 ns electric pulses combined with antibiotic (CFU plating); type: cell-based, Escherichia coli; parameters: synergy, E. coli: dose or concentration left out as unconfirmed
Description: as §8
as §9, with “Utilizing Luria broth, containing 0.5% NaCl, in a cuvette with gap distances of 1 mm and 2 mm yielded the best electrical match (no reflections in the measured signal).” left out
as §10, §11, §12
Cuvettes were filled with 365 μL of sample (sufficient to just cover the electrodes) and then 250 μL of molecular biology grade mineral oil was placed on top.
Added were 0.2, 2, and 20 μg/mL of each drug to the initial bacterial dilutions prior to pulsing. Samples were immediately placed on ice to minimize cell division and reduce variability. These aliquots were also used to plate individual unpulsed controls for each drug concentration.
as §13
Plated were samples at dilutions of 10^−6 and 10^−3 for low and high electric field treatments, respectively, and at 10^−6 and 10^−5 for controls All samples containing 100 μL of pulsed or diluted cultures were plated on LB agar plates and counted after overnight incubation at 37° C.
Pulsing with drugs: bacterial samples of both gram-positive S. aureus and gram-negative E. coli strains were pulsed in a solution with 0.2, 2, and 20 μg/mL of tobramycin and compared to an un-pulsed drug-exposed control. Pulsing and plating were performed to ensure that the drug exposure time of the bacteria was approximately fifteen minutes.

bacteria = assay: Low-dose tobramycin combined with a train of NSEPs, bacterium not specified; type: cell-based; conditions: 0.2 μg/mL, 1/20th of the recommended clinical dose; whole process approximately 15 min
Description: as §8
as §10, with “These samples were then plated at dilutions between 10-6 and 100 (no dilution) depending on the effectiveness of the pulse treatments.” left out
as §14

[7] = same energy, different electric fields and number of pulses, different concentrations, vs antibiotic alone

SMILES: CC[C@H]1OC(=O)[C@H](C)[C@@H](O[C@H]2C[C@@](C)(OC)[C@@H](O)[C@H](C)O2)[C@H](C)[C@@H](O[C@@H]2O[C@H](C)C[C@H](N(C)C)[C@H]2O)[C@](C)(O)C[C@@H](C)C(=O)[C@H](C)[C@@H](O)[C@]1(C)O [erythromycin]
- change in E. coli population [1]: induced changes
- additional inactivation of P. aeruginosa [2]: no additional inactivation

SMILES: CC(=O)O[C@H]1C[C@@]2(C)[C@@H](C[C@@H](O)[C@H]3[C@@]4(C)CC[C@@H](O)[C@@H](C)[C@@H]4CC[C@@]32C)/C1=C(\CCC=C(C)C)C(=O)O [fusidic acid]
- change in E. coli population [1]: induced changes

SMILES: CC(=O)NC[C@H]1CN(c2ccc(N3CCOCC3)c(F)c2)C(=O)O1 [linezolid]
- log reduction of K. pneumoniae / improvement over the NSEPs ([3]; 30 kV/cm NSEPs + 20 μg/mL): did not induce a statistically significant improvement
- change in E. coli population [1]: induced changes
- synergy (FIG. 11B legend) ([2]; 20 kV/cm EPs + 20 μg/mL): approximately 2 log
- additional inactivation of P. aeruginosa [2]: no additional inactivation

SMILES: C/C(=C\C(=O)OCCCCCCCCC(=O)O)C[C@@H]1OC[C@H](C[C@@H]2O[C@H]2[C@@H](C)[C@H](C)O)[C@@H](O)[C@H]1O [mupirocin]
- synergy (synergistic inactivation), MRSA ([4]; 20 μg/mL + 30 kV/cm EPs): approximately 1.5 log
- MRSA 300 inactivation compared to using only the NSEPs ([4]; 20 μg/mL + 30 kV/cm NSEPs): improvement
- inactivation of K. pneumoniae vs NSEPs ([3]; 20 kV/cm NSEPs + 2 μg/mL): slight increase
- inactivation of K. pneumoniae vs NSEPs ([3]; 20 kV/cm NSEPs + 20 μg/mL): an increase
- additional inactivation compared to NSEPs alone, K. pneumoniae ([3]; 30 kV/cm NSEPs + 2 μg/mL): 1 log
- change in E. coli population [1]: induced changes
- additional inactivation of P. aeruginosa [2]: no additional inactivation

SMILES: NC[C@H]1O[C@H](O[C@H]2[C@H](O)[C@@H](O[C@H]3O[C@H](CO)[C@@H](O)[C@H](N)[C@H]3O)[C@H](N)C[C@@H]2N)[C@H](N)C[C@@H]1O [tobramycin]
- reduction in S. aureus population ([5]; 20 kV/cm EPs + 0.2 μg/mL): 10-20%
- log-reduction of S. aureus ([5]; 20 kV/cm EPs + 2 μg/mL): 1.5 log
- log-reduction of S. aureus ([5]; 20 kV/cm EPs + 20 μg/mL): 2.6 log
- synergy (additional inactivation induced by the antimicrobial for a given pulse condition), S. aureus ([5]; 20 kV/cm pulse trains, 0.2 μg/mL): no synergy
- synergy, S. aureus ([5]; 20 kV/cm pulse trains, 2.0 μg/mL): 1.5 log
- synergy, S. aureus ([5]; 30 and 40 kV/cm pulse trains, 2 and 20 μg/mL doses): synergies occurred
- effect of combining trains of 300 ns EPs with antibiotic on amount of viable S. aureus [5, 7]: synergistically reduced; also recorded: significantly greater inactivation
- synergy, E. coli ([6]; 20 kV/cm treatment): did not
- synergy, E. coli ([6]; 30 and 40 kV/cm treatments): exhibited synergy
- reduction of E. coli ([6]; 40 kV/cm EPs combined with antibiotic, considered complete sterilization): over 9 log-10
- synergy, E. coli ([6]; any of the applied electric fields, any concentration (FIG. 5B)): experienced synergy
- effect of combining trains of 300 ns EPs with antibiotic on amount of viable E. coli [6, 7]: synergistically reduced; also recorded: significantly greater inactivation
- synergy with NSEPs (bacteria): Synergy occurred

SMILES: CN[C@H](CC(C)C)C(=O)N[C@H]1C(=O)N[C@@H](CC(N)=O)C(=O)N[C@H]2C(=O)N[C@H]3C(=O)N[C@H](C(=O)N[C@H](C(=O)O)c4cc(O)cc(O)c4-c4cc3ccc4O)[C@H](O)c3ccc(c(Cl)c3)Oc3cc2cc(c3O[C@@H]2O[C@H](CO)[C@@H](O)[C@H](O)[C@H]2O[C@H]2C[C@](C)(N)[C@H](O)[C@H](C)O2)Oc2ccc(cc2Cl)[C@H]1O [vancomycin]
- additional inactivation compared to NSEPs alone, K. pneumoniae ([3]; 30 kV/cm NSEPs + 2 μg/mL): 1 log
- log reduction of K. pneumoniae ([3]; 30 kV/cm NSEPs + 2 μg/mL): 5 log
- change in E. coli population [1]: induced changes
- additional inactivation of P. aeruginosa [2]: no additional inactivation
- log reduction of P. aeruginosa ([2]; 30 kV/cm NSEPs + 2 μg/mL): up to 2 log
- synergy, P. aeruginosa ([2]; 30 kV/cm NSEPs + 2 μg/mL): synergy
